In paper PMC11040352, “CD38‐Specific Gallium‐68 Labeled Peptide Radiotracer Enables Pharmacodynamic Monitoring in Multiple Myeloma with PET” (Advanced Science, 2024):

Columns and labels:
[1] = target: T1, recombinant human CD38 protein (Homo sapiens, UniProt P28907); assay: Affinity measurement by surface plasmon resonance (SPR), human CD38; type: binding
T1 construct: purchased R&D systems 2404-AC
Experimental: The affinity of AJ206 for hCD38 and mCD38 recombinant proteins were evaluated by SPR. The experiments were conducted using a Biacore T200 instrument with a CM5 chip at 25 °C. The ligands used were His‐Tagged human CD38 (R&D systems, catalog # 2404‐AC, 43 kDa, 0.5 mg mL^−1 stock concentration) and mouse CD38 proteins (R&D systems, catalog # 4947‐AC, 40 kDa, 1.81 mg mL^−1 stock concentration), which were immobilized onto the CM5 chip. AJ206 (2089.2 Da, 10 × 10^−3 M stock concentration) was used as the analyte, which flowed over the ligand immobilized surface. FC2 was used as the experimental flow cell, while FC1 served as the reference. Anti‐His antibody (1 mg mL^−1 stock concentration) was immobilized on both FC1 and FC2 using standard amine coupling chemistry. The immobilization running buffer used was PBS‐P (20 × 10^−3 M phosphate buffer pH 7.4, 137 × 10^−3 M NaCl, 2.7 × 10^−3 M KCl, 0.05% v/v surfactant P20). Human CD38 was captured onto FC2 at a level of ≈860 RU, with a 1:20 dilution and 25 µg mL^−1 diluted concentration in PBS‐P. Mouse CD38 was captured onto FC4 at a level of 1360 RU, with a 1:50 dilution and 36.2 µg mL^−1 diluted concentration in PBS‐P. The theoretical R max values were calculated based on the captured response values and are presented in Table 2 , assuming a 1:1 interaction mechanism. […]

[2] = system: MM cell lines (U266, RPMI8226, MM1S, and MOLP8); assay: ATRA treatment, flow cytometry of CD38 surface expression; type: cell-based, human; conditions: four MM cell lines, ATRA 48 h
Experimental: To evaluate CD38 surface expression, cells (1 × 10^6) were stained with PE‐labelled anti‐human CD38 monoclonal antibody (clone HB‐7, BioLegend Cat # 356604) in FACS buffer (0.5% FBS with 2 mM EDTA) for 30 min on ice. After washing and resuspending in FACS buffer, data were acquired on a BD Accuri C6 plus flow cytometer and analyzed using FlowJo software. Receptor density measurements were performed using Quantibrite Beads (BD Biosciences, cat #340495), which contain four levels of phycoerythrin (PE) per bead. Gates were drawn on low, medium low, medium high, and high PE binding beads, and the geometric mean from these populations was correlated with the lot‐specific PE molecule/bead on a logarithmic scale. This correlation was used to translate cell population geometric mean to receptor/cell for the respective cell type. To evaluate the pharmacodynamic effects of ATRA therapy on MM cells, U266, RPMI8226, MM1S, and MOLP8 cells were seeded at a concentration of 0.5 million in 500 µL per well in triplicates in a six‐well plate. A 200 × 10^−9 M working solution of all‐trans retinoic acid (ATRA, Sigma‐Aldrich #554720) was prepared by diluting in culture media. Next, 500 µL of the working solution was added to each well, and the cells were incubated for 48 h at 37 °C in a 5% CO2 atmosphere. […]

[3] = system: PDX tumors; assay: PET imaging of patient‐derived xenografts (PDXs), incl. before and after ATRA; type: in vivo, NSG mice; conditions: PDX mice, oral ATRA 500 µg per day for 3 d, compared to pre‐treatment
Experimental: To establish PDX models, immune‐deficient NSG male mice (NOD/Shi‐scid IL‐2rgnull), aged 6–8 weeks, were employed after being irradiated at an absorbed dose of 200 cGy. PCL cells, sourced from two patients and anonymized, were obtained from Dr. Gocke's laboratory. Under sterile conditions, the cells were thawed and treated with DNAse at a concentration of 20 µg mL^−1. After cell counting, 30 000 cells were subjected to flow cytometry analysis to assess CD38 expression. The remaining cells were subcutaneously inoculated at a concentration of 5 × 10^6 cells in 100 µL of a solution comprising 60% Matrigel Basement Matrix (Corning 356230) diluted with HBSS. The animals were included in the experiments once the PDX volumes reached tumor volumes of 100–200 mm^3.
Mice bearing flank tumors and disseminated disease were injected intravenously with [^68Ga]Ga‐AJ206 and PET images were acquired 60 min after injection of the radiotracer. […] PET images were quantified by drawing ROI on tissues using Amide 1.0.6 and reported as %ID/cc.
To assess the pharmacodynamics of ATRA‐induced CD38 expression in vivo, mice bearing PDX tumors (n = 6) were subjected to image using [^68Ga]Ga‐AJ206 to quantify CD38 expression prior to treatment. […] All images were analyzed using AMIDE software with standard ROI analysis techniques.

[4] = system: MM cell lines (U266, RPMI8226, MM1S, and MOLP8); assay: ATRA treatment, in vitro uptake of [^68Ga]Ga‐AJ206; type: cell-based, human; conditions: ATRA treated cells compared to control treatment
Experimental: In vitro binding assays were conducted to determine the binding of [^68Ga]Ga‐AJ206 to U266, RPMI8226, MM1S, and MOLP8 cells. Approximately 1 µCi of [^68Ga]Ga‐AJ206 was incubated with 1 × 10^6 cells in 100 µL of culture media for 60 min at 4 °C. After incubation, cells were washed three times with ice‐cold PBS containing 0.1% tween‐20 and counted on an automated gamma counter (1282 Compugamma CS, Pharmacia/LKB Nuclear, Inc., Gaithersburg, MD). […] All cellular uptake studies were performed in quadruplicate for each cell line and repeated three times.
To evaluate the pharmacodynamic effects of ATRA therapy on MM cells, U266, RPMI8226, MM1S, and MOLP8 cells were seeded at a concentration of 0.5 million in 500 µL per well in triplicates in a six‐well plate. A 200 × 10^−9 M working solution of all‐trans retinoic acid (ATRA, Sigma‐Aldrich #554720) was prepared by diluting in culture media. Next, 500 µL of the working solution was added to each well, and the cells were incubated for 48 h at 37 °C in a 5% CO2 atmosphere. After incubation, cells were transferred to FACS tubes, medium was removed by centrifugation, and the cells were resuspended in FACS buffer for flow cytometry and in vitro binding studies, following the same protocol as previously described.

T1 sequence (P28907 whole entry): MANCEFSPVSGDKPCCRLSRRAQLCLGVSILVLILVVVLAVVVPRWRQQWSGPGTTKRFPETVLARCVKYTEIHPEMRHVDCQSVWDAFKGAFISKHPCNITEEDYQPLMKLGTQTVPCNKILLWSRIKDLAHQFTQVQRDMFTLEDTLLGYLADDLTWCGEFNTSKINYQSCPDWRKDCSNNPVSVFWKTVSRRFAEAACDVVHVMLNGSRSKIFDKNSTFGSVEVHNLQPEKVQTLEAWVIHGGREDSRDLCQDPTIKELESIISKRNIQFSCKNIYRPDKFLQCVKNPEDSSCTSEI

| Structure (SMILES) | Kd ([1]; hCD38, read-out: dissociation constant (K D)) | koff ([1]; recombinant human CD38, mean ± SEM (n = 2), read-out: Koff (1/s) x10^-4) | change of CD38 expression [2] | change of [^68Ga]Ga‐AJ206 radioactivity uptake in tumors (PET) [3] | change of [^68Ga]Ga‐AJ206 radioactivity uptake in treated cells [4] |
| --- | --- | --- | --- | --- | --- |
| CC[C@H](C)[C@@H]1NC(=O)[C@@H]2CCCN2C(=O)[C@H](Cc2ccccc2)NC(=O)[C@H](CC(=O)O)NC(=O)[C@H](C)NC(=O)[C@@H]2CSCc3cc(cc(c3)CSC[C@H](NC(=O)[C@H](C)NC(=O)CCOCCOCCOCCNC(=O)CN3CCN(CC(=O)O)CCN(CC(=O)O)CC3)C(=O)N[C@@H](C(C)C)C(=O)N3CCC[C@H]3C(=O)N2)CSC[C@@H](C(N)=O)NC(=O)[C@H](Cc2ccc(O)cc2)NC(=O)[C@H](Cc2c[nH]c3ccccc23)NC1=O [AJ206] | 19.1 ± 0.99 nM | 0.0006 ± 0.000121 s⁻¹ | – | – | – |
| CC1=C(/C=C/C(C)=C/C=C/C(C)=C/C(=O)O)C(C)(C)CCC1 [ATRA, all‐trans retinoic acid] | – | – | increased CD38 expression | significant increase | significant increase |
